Test results from patent US20180282331A1, “7-Oxo -6-(sulfooxy)- 1,6-diazabicyclo [3.2.1] octane containing compounds and their use in treatment of bacterial infections (changed by PCT to: 7-OXO -6-(SULFOOXY)- 1,6-DIAZABICYCLO [3.2.1] OCTANE CONTAINING COMPOUNDS AND THEIR USE IN TREATMENT OF BACTERIAL INFECTIONS” (WOCKHARDT LIMITED, priority 2015, published 2018).
Like-named read-outs stand apart in the source and are kept apart here.

Key:
Assay in all cases: MIC, agar dilution (MHA), compound alone
Assay type in all cases: cell-based
[1] = tested on: K. pneumoniae H521; details: K. pneumoniae H521, compound alone, MHA, 35° C., 18 hours
Protocol: (§1) The biological activity of representative compounds according to the invention against various bacterial strains was investigated. The Minimum Inhibitory Concentration (MIC) determination for the combinations was carried out in Muller Hinton Agar (MHA) (BD, USA) according to Clinical and Laboratory Standards Institute (CLSI) recommendations, (Clinical and Laboratory Standards Institute (CLSI), Performance Standards for Antimicrobial Susceptibility Testing, 20th Informational Supplement, M 100-S20, Volume 30, No. 1, 2010). In short, the test strains were adjusted to deliver about 10^4 CFU per spot with a multipoint inoculator (Applied Quality Services, UK). The plates were poured with MHA containing doubling concentration range of representative compounds according to present invention. The plates were inoculated and were incubated at 35° C. for 18 hours. […] The Table 5 depicts the antibacterial activity profile of compounds according to present invention against various multidrug resistant bacterial strains.

[2] = tested on: K. pneumoniae ATCC 700603; details: K. pneumoniae ATCC 700603, compound alone, MHA, 35° C., 18 hours
Protocol: as §1

[3] = tested on: E. coli NCTC 13353; details: E. coli NCTC 13353, compound alone, MHA, 35° C., 18 hours
Protocol: as §1

[4] = tested on: K. pneumoniae H525; details: K. pneumoniae H525, compound alone, MHA, 35° C., 18 hours
Protocol: as §1

[5] = tested on: E. coli NCTC 13352; details: E. coli NCTC 13352, compound alone, MHA, 35° C., 18 hours
Protocol: as §1

[6] = tested on: E. coli M 50; details: E. coli M 50, compound alone, MHA, 35° C., 18 hours
Protocol: as §1

[7] = tested on: E. coli 7 MP; details: E. coli 7 MP, compound alone, MHA, 35° C., 18 hours
Protocol: as §1

[8] = Klebsiella pneumoniae, read-out: MIC
[9] = Klebsiella pneumoniae, ATCC700603, read-out: MIC
[10] = Escherichia coli, NCTC13353, read-out: MIC
[11] = Escherichia coli, NCTC13352, read-out: MIC
[12] = Escherichia coli, M50, read-out: MIC
[13] = Escherichia coli, read-out: MIC

Compound | MIC [1, 8] [mg/L] | MIC [2, 9] [mg/L] | MIC [3, 10] [mg/L] | MIC [4, 8] [mg/L] | MIC [5, 11] [mg/L] | MIC [6, 12] [mg/L] | MIC [7, 13] [mg/L] | MIC [1] [mg/L] | MIC [2] [mg/L] | MIC [3] [mg/L] | MIC [4] [mg/L] | MIC [5] [mg/L] | MIC [6] [mg/L] | MIC [7] [mg/L]
CO/N=C(\C(=O)N[C@@H]1C(=O)N2C(C(=O)[O-])=C(C[N+]3(C)CCCC3)CS[C@H]12)c1csc(N)n1 [Cefepime, reference compound] | 32 | 0.5 | 32 | 32 | 4 | > 32 | 16 | – | – | – | – | – | – | –
O=C(Cn1ccnc1)NNC(=O)[C@@H]1CC[C@@H]2CN1C(=O)N2OS(=O)(=O)O.[Na] [Example 2, Sodium salt of (2S,5R)-N′-(1H-imidazol-1-ylacetyl)-7-oxo-6-(sulfooxy)-1,6-diazabicyclo[3.2.1]octane-2-carbohydrazide] | – | – | – | – | – | – | – | 1 | >32 | 0.25 | 1 | 0.5 | 0.5 | 1
O=C(Cn1ncnn1)NNC(=O)[C@@H]1CC[C@@H]2CN1C(=O)N2OS(=O)(=O)[O-].[Na+] [Example 4] | 1 | > 32 | 0.5 | 1 | 0.5 | 0.5 | 1 | – | – | – | – | – | – | –
CCOC(=O)c1nnnn1CC(=O)NNC(=O)[C@@H]1CC[C@@H]2CN1C(=O)N2OS(=O)(=O)[O-].[Na+] [Example 5] | 2 | > 32 | 0.5 | 2 | 0.5 | 1 | 2 | – | – | – | – | – | – | –
O=C(Cn1nccn1)NNC(=O)[C@@H]1CC[C@@H]2CN1C(=O)N2OS(=O)(=O)[O-].[Na+] [Example 6] | 2 | > 32 | 1 | 2 | 1 | 1 | 2 | – | – | – | – | – | – | –
O=C(Cn1ccnn1)NNC(=O)[C@@H]1CC[C@@H]2CN1C(=O)N2OS(=O)(=O)[O-].[Na+] [Example 7] | 1 | > 32 | 0.5 | 1 | 0.5 | 0.5 | 1 | – | – | – | – | – | – | –
O=C(Cn1cncn1)NNC(=O)[C@@H]1CC[C@@H]2CN1C(=O)N2OS(=O)(=O)[O-].[Na+] [Example 8] | 1 | > 32 | 0.5 | 1 | 0.5 | 0.5 | 2 | – | – | – | – | – | – | –
Cc1nnnn1CC(=O)NNC(=O)[C@@H]1CC[C@@H]2CN1C(=O)N2OS(=O)(=O)[O-].[Na+] [Example 9] | 4 | > 32 | 0.25 | 1 | 0.5 | 0.25 | 1 | – | – | – | – | – | – | –
O=C(Cn1cccn1)NNC(=O)[C@@H]1CC[C@@H]2CN1C(=O)N2OS(=O)(=O)[O-].[Na+] [Example 11] | 32 | > 32 | 1 | > 32 | 1 | 1 | 4 | – | – | – | – | – | – | –
CCOC(=O)Cc1nnnn1CC(=O)NNC(=O)[C@@H]1CC[C@@H]2CN1C(=O)N2OS(=O)(=O)[O-].[Na+] [Example 12] | 4 | > 32 | 1 | 4 | 0.5 | 2 | 2 | – | – | – | – | – | – | –
CCOC(=O)Cc1nnn(CC(=O)NNC(=O)[C@@H]2CC[C@@H]3CN2C(=O)N3OS(=O)(=O)[O-])n1.[Na+] [Example 13] | 32 | > 32 | 1 | 32 | 1 | 2 | 2 | – | – | – | – | – | – | –
NC(=O)Cc1nnn(CC(=O)NNC(=O)[C@@H]2CC[C@@H]3CN2C(=O)N3OS(=O)(=O)[O-])n1.[Na+] [Example 14] | 4 | > 32 | 1 | 4 | 1 | 0.5 | 1 | – | – | – | – | – | – | –
NC(=O)Cc1nnnn1CC(=O)NNC(=O)[C@@H]1CC[C@@H]2CN1C(=O)N2OS(=O)(=O)[O-].[Na+] [Example 15] | 2 | > 32 | 0.5 | 2 | 0.5 | 0.5 | 1 | – | – | – | – | – | – | –
NC(=O)c1nnn(CC(=O)NNC(=O)[C@@H]2CC[C@@H]3CN2C(=O)N3OS(=O)(=O)[O-])n1.[Na+] [Example 16] | 2 | > 32 | 1 | 2 | 1 | 1 | 2 | – | – | – | – | – | – | –
NC(=O)c1nnnn1CC(=O)NNC(=O)[C@@H]1CC[C@@H]2CN1C(=O)N2OS(=O)(=O)[O-].[Na+] [Example 17] | 1 | > 32 | 0.25 | 1 | 0.25 | 0.25 | 0.5 | – | – | – | – | – | – | –
O=C(Cn1cccc1)NNC(=O)[C@@H]1CC[C@@H]2CN1C(=O)N2OS(=O)(=O)[O-].[Na+] [Example 18] | 1 | > 32 | 0.25 | 1 | 0.5 | 0.5 | 1 | – | – | – | – | – | – | –
C[C@@H](C(=O)NNC(=O)[C@@H]1CC[C@@H]2CN1C(=O)N2OS(=O)(=O)[O-])n1ccnc1.[Na+] [Example 20] | 2 | > 32 | 0.5 | 2 | 0.5 | 0.5 | 1 | – | – | – | – | – | – | –
CCOC(=O)c1nccn1CC(=O)NNC(=O)[C@@H]1CC[C@@H]2CN1C(=O)N2OS(=O)(=O)[O-].[Na+] [Example 21] | 8 | > 32 | 2 | 8 | 2 | 2 | 4 | – | – | – | – | – | – | –
Nc1nnnn1CC(=O)NNC(=O)[C@@H]1CC[C@@H]2CN1C(=O)N2OS(=O)(=O)O [Example 24, (2S,5R)-N′-[(5-amino-1H-tetrazol-1-yl)acetyl]-7-oxo-6-(sulfooxy)-1,6-diazabicyclo[3.2.1]octane-2-carbohydrazide] | 2 | > 32 | 0.5 | 2 | 1 | 0.5 | 2 | – | – | – | – | – | – | –
NCc1nnnn1CC(=O)NNC(=O)[C@@H]1CC[C@@H]2CN1C(=O)N2OS(=O)(=O)O [Example 25] | 1 | > 32 | 1 | 1 | 1 | 0.5 | 2 | – | – | – | – | – | – | –
NCc1nnn(CC(=O)NNC(=O)[C@@H]2CC[C@@H]3CN2C(=O)N3OS(=O)(=O)O)n1 [Example 26] | 1 | > 32 | 0.5 | 1 | 0.5 | 0.5 | 1 | – | – | – | – | – | – | –
Nc1ncn(CC(=O)NNC(=O)[C@@H]2CC[C@@H]3CN2C(=O)N3OS(=O)(=O)O)n1 [Example 27] | 2 | > 32 | 1 | 2 | 1 | 1 | 2 | – | – | – | – | – | – | –
NCCc1nnn(CC(=O)NNC(=O)[C@@H]2CC[C@@H]3CN2C(=O)N3OS(=O)(=O)O)n1 [Example 28] | 0.5 | > 32 | 0.25 | 0.5 | 0.5 | 0.25 | 1 | – | – | – | – | – | – | –
NCCCc1nnn(CC(=O)NNC(=O)[C@@H]2CC[C@@H]3CN2C(=O)N3OS(=O)(=O)O)n1 [Example 30] | 0.5 | > 32 | 0.25 | 0.5 | 0.5 | 0.5 | 1 | – | – | – | – | – | – | –
NCCCc1nnnn1CC(=O)NNC(=O)[C@@H]1CC[C@@H]2CN1C(=O)N2OS(=O)(=O)O [Example 31] | 1 | > 32 | 0.5 | 1 | 0.5 | 0.5 | 1 | – | – | – | – | – | – | –
NCCCCc1nnn(CC(=O)NNC(=O)[C@@H]2CC[C@@H]3CN2C(=O)N3OS(=O)(=O)O)n1 [Example 32] | 0.5 | > 32 | 0.25 | 0.5 | 0.5 | 0.5 | 1 | – | – | – | – | – | – | –
NCCCCc1nnnn1CC(=O)NNC(=O)[C@@H]1CC[C@@H]2CN1C(=O)N2OS(=O)(=O)O [Example 33] | 4 | > 32 | 0.5 | 0.5 | 1 | 0.5 | 1 | – | – | – | – | – | – | –
